Key:
[1] = test system: synaptic markers pCREB, pMAPK, GluR1 in hippocampal slice cultures; test: Activation of synaptic (LTP) markers in hippocampal slice cultures; format: cell-based, Wistar rats; conditions: hippocampal slices, 15 min treatment; for GluR1, percentage of control values: cell surface AMPA receptor 1; for pCREB, relative activation / pMAPK, relative activation: vs buffer-treated sister cultures
Experimental: Seven-day-old Wistar rats were decapitated using a guillotine. In less than 1 minute the skull was opened, the cerebral hemispheres were separated and transferred and both hippocampi were dissected and transferred into ice-cold buffer containing 137 mM NaCl, 5 mM KCl, 0.85 mM Na2HPO4, 1.5 mM CaCl2, 0.66 mM KH2PO4, 0.28 mM MgSO4, 1 mM MgCl2, 2.7 mM NaHCO3, 1 mM Kynurenic acid and 0.6% D-glucose.
Transverse hippocampal slices (400 μm) were prepared using a vibrating blade microtome (VT1200S; Leica Microsystems (Schweiz) AG, Heerbrugg, Switzerland) in the same buffer. Hippocampal slices were individually placed on membrane inserts (Millicell Culture Plate Inserts, 0.4 μm) and cultivated at 35° C., 5% CO2, 95% humidity in a medium containing a 1:1 mixture of BME and MEM (both from Invitrogen) containing 25% heat-inactivated horse serum, 1× GlutaMAX, 1× Penicillin/Streptomycin, 0.6% glucose and 1 mM Kynurenic acid (Stoppini, Buchs and Muller (1991), J. Neurosci. Methods, 37(2), 173-82).
After 48 h in culture, synaptic NMDA receptors were activated by addition of carnosol or rosmanol for 15 min in 140 mM NaCl, 5 mM KCl, 1.3 mM CaCl2, 25 mM HEPES (pH 7.3), 33 mM D-glucose and 0.02 mM bicuculline methiodide. […] An additional positive control comprised the addition of 200 μM glycine to sister cultures. After the treatments, sections were washed and fixed for immunohistochemistry. Markers of enhanced synaptic activity, normally associated with long-term potentiation, representing an ex vivo model of learning and memory were quantitated (see Table 6, below).
Treatment of hippocampal cultures with carnosol and rosmanol induced one or more biochemical markers typical for LTP (pCREB: activated form of the cAMP response element binding protein; pMAPK: activated form of the mitogen-activated protein kinase; GluR1: cell surface presence of AMPA receptor 1).

mouse = test: Porsolt's Forced Swim Test (FST); format: in vivo
Experimental: The Forced Swim Test (FST) was first reported in 1977 for screening of antidepressant-like compounds in rats (Porsolt et al 1977 Nature, 266:730-732) and, later, modified for testing mice (Porsolt et al 1977 Arch. Int. Pharmacodynamie, 229:327-336).
In two separate experiments, mice were tested following either i.p. or p.o. administration of carnosol. Mice were individually placed in a cylinder containing water (22° C.) from which they could not escape. The mice were placed in the water for 6 min and the duration of immobility during the last 4 min was measured. Ten to fifteen mice were studied per group. Carnosol was evaluated at 3, 10, 30 mg/kg body weight (i.p. 30 min before the test) or 200, 400, 600 mg/kg body weight (p.o., 24, 5 and 1 h before the test), and compared with vehicle control groups. Imipramine (32 mg/kg i.p., or p.o., respectively), administered under the same experimental conditions, was used as reference substance. Immobility and swimming time were assessed.

[2] = target: T1, human glycine transporter 1b (GlyT1) (Homo sapiens, UniProt P48067); test: Glycine uptake inhibition in CHO cells expressing GlyT1; format: cell-based; conditions: 60 nM [3H]-glycine
T1 construct: expressed in transfected cells; host or cells: CHO
T1 sequence (P48067 1-652 isoform P48067-3): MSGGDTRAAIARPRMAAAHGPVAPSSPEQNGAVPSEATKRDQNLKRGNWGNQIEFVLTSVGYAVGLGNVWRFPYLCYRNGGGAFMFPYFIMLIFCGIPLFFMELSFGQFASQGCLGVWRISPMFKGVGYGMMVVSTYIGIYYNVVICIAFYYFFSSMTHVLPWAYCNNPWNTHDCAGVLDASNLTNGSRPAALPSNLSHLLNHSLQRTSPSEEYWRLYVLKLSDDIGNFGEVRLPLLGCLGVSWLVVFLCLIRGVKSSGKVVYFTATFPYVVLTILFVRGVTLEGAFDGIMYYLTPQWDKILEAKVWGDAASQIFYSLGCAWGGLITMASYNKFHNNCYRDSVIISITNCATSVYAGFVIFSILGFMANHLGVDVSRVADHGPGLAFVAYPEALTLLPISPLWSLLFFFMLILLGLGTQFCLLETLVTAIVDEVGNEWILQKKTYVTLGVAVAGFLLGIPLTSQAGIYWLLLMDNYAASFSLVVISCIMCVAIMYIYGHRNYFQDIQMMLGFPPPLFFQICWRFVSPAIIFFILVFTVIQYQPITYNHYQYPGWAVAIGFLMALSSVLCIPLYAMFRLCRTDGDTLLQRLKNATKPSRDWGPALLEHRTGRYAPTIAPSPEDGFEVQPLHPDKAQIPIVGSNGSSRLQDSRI
Experimental: CHO cells stably expressing the human glycine transporter 1b cDNA (GlyT1) were routinely grown in Dulbecco's Modified Eagle's Medium (Invitrogen, Carlsbad, USA) containing 10% dialysed foetal calf serum, penicillin, streptomycin, proline and the antibiotic G418. Cells were harvested by trypsinisation one day prior to the assay and were seeded in the above mentioned medium. Immediately prior to the assay, the medium was replaced by uptake buffer containing 150 mM NaCl, 1 mM CaCl2, 2.5 mM KCl, 2.5 mM MgCl2, 10 mM Glucose and 10 mM N-2-hydroxyethylpiperazine-N′-2-ethanesulfonic acid (HEPES buffer).
Glycine uptake into the cells was determined by addition of 60 nM radiolabelled [^3H]-glycine (Amersham Biosciences GE Healthcare, Slough, UK) and incubation for 30 minutes at room temperature. Following removal of unincorporated label by gentle washing three times with the above buffer, incorporated glycine was quantified by liquid scintillation counting.

Row | Compound | GluR1, percentage of control values [1] [%] | pCREB, relative activation [1] | pMAPK, relative activation [1] | Duration of immobility (% change from control) (mouse; 3 mg/kg i.p., −30 min) [%] | Duration of immobility (% change from control) (mouse; 10 mg/kg i.p., −30 min) [%] | Duration of immobility (% change from control) (mouse; 30 mg/kg i.p., −30 min) [%] | Duration of immobility (% change from control) (mouse; 200 mg/kg p.o., −24, −5, −1 h) [%] | Duration of immobility (% change from control) (mouse; 400 mg/kg p.o., −24, −5, −1 h) [%] | Duration of immobility (% change from control) (mouse; 600 mg/kg p.o., −24, −5, −1 h) [%] | IC50 ([2]; read-out: IC50 for tritiated glycine uptake) [µM] | IC50 for tritiated glycine uptake (result in words) [2]
1 | CC(C)c1cc2c(c(O)c1O)[C@@]13CCCC(C)(C)[C@@H]1C[C@@H]2OC3=O [Carnosol, carnosol] | 608 | ± | ++ | −26 | −21 | −18 | −9 | −53 | −3 | 29.3 | –
2 | CC(C)c1cc2c(c(O)c1O)[C@@]13CCCC(C)(C)[C@@H]1[C@H](OC3=O)[C@H]2O [Rosmanol, rosmanol] | 320 | ± | + | – | – | – | – | – | – | – | inactive
